A short description of data set [1]: Fine particle fraction of salbutamol sulphate blended with Lactochem lactose (Example 7). The settings on record: after blending with Lactochem lactose. It counts as physicochemical.
Data set [2] is described as follows: Mass median diameter of salbutamol sulphate particles. It counts as physicochemical.

Consider 2 substances from US20030118514A1, “Compositions for inhalation” (Glaxo Wellcome Inc., priority 1998, published 2003).

Read-outs that look alike come from different tables or passages of the source.

Regarding “salbutamol sulphate [recrystallised salbutamol sulphate]”, in data set [1], the “fine particle fraction (<6.4 μm)” value was determined as 22.8 % recovered dose. This substance also gave a mass median diameter in data set [2] (listed as elongated crystals (needle shaped) of salbutamol sulphate) of 5.49 μm.

As for “salbutamol sulphate [micronised salbutamol sulphate]”, in data set [1], the “fine particle fraction (<6.4 μm)” value was 10.8 % recovered dose. This substance returned a mass median diameter in data set [2] of 4.79 μm.
